Test system: Mycobacterium tuberculosis H37Rv growth inhibition, no glycerol
Assay: Confirmatory growth inhibition assay, Mycobacterium tuberculosis H37Rv, absence of glycerol (AID 449764);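 also: growth read after 7 days of incubation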
Settings: for IC90: measured here: IC90 growth inhibition

Row | Compound | IC50 [µM] | IC90 [µM]
1 | COc1cc2c(cc1NC(=O)CN1C(=O)NC3(CCc4ccccc43)C1=O)oc1ccccc12 (stereo not given) | 19.9 | > 100
2 | CCc1cc(/C(Cc2ccccn2)=N\Nc2ccccc2)c(O)cc1O | 85.7 | 94.6
3 | Cc1ccc(Nc2nc(CSc3nnc(-c4cccs4)o3)cs2)cc1 | 43.3 | > 100
4 | O=C(OCc1csc(Nc2ccccc2)n1)c1ccc(Cl)cc1 | 46.4 | 53
5 | COC(=O)c1c(NC(=O)CCl)sc(C(=O)N2CCOCC2)c1C | 10 | 23.1
6 | CCC(C)N1CCC2(CC1)N=c1c(c3c4c5c(C)c(O)c3c(O)c1=NC(=O)C(C)=CC=C[C@H](C)[C@H](O)[C@@H](C)[C@@H](O)[C@@H](C)[C@H](OC(C)=O)[C@H](C)[C@@H](OC)C=CO[C@@](C)(O5)C4=O)N2 (stereo not given in full) | < 0.2 | < 0.2
7 | CCOC(=O)N1CCN(c2nc(N(c3ccccc3)c3ccccc3)nc(-n3ccnc3)n2)CC1 | 98.2 | > 100
8 | COc1ccccc1C1CC(c2ccc(Cl)cc2)Nc2ncnn21 (stereo not given) | 22.7 | 30.7
9 | O=C(/C=C/c1cccnc1)c1cccc(O)c1 | 22.4 | 24.1
10 | N#CC(C#N)=c1ccc2c(c1)N1C3=C(CCCC3)CC3CCCCC31N=2 (stereo not given) | 12.5 | 13.5
11 | C(=C\c1nccc2c1[nH]c1ccccc12)/c1ccccc1 | 31.2 | 42.7
12 | c1ccc(-c2nnc(-c3ccccn3)nn2)nc1 | 6.07 | 6.86
13 | Cc1ccccc1N1CCN(c2ncnc3c2cnn3Cc2ccc(Cl)cc2)CC1 | 56.4 | > 100
14 | COc1cccc(-c2cc3nc4c(c(NCC(C)(C)CN(C)C)n3n2)CCCC4)c1 | 27.5 | 36.3
15 | COc1c(C)cc(C(=O)C2CCCN(Cc3ccccn3)C2)cc1C (stereo not given) | 20.2 | 29.7
16 | O=C(Nc1ccccc1)C1=C[C@@H](C2CCCCC2)C[C@@H](OCc2ccc(CO)cc2)O1 | 36 | 47.6
17 | Cc1cc(C)c(C(N)=O)c(SCC(=O)c2ccc(Cl)cc2)n1 | 75.3 | > 100
18 | COC1=CC(=O)c2ccccc2C1=O | 22.8 | 24.6
19 | O=c1c2c(nc3nc(NCc4ccc(Cl)cc4)[nH]n13)CCC2 | 9.12 | 14.3
20 | COc1ccc(-c2cc(C3CCN(Cc4cccc(C(F)(F)F)c4)CC3)[nH]n2)cc1 | 13.3 | 24.9
21 | CC(Oc1cc2oc(=O)c3c(c2cc1Cl)CCCC3)C(=O)NCc1ccccn1 (stereo not given) |  | > 100
22 | COc1cc(NC(=O)c2ccc(COc3ccccc3Br)o2)cc(OC)c1OC | 67 | > 100
23 | CCOC(=O)CN[C@H]1CCC2C3CC=C4C[C@@H](O)CC[C@]4(C)C3CC[C@@]21C (stereo not given in full) | 3.53 | 14.3

Row | Compound | IC50 [µM] | IC90 [µM]
24 | CCCSc1nnc(Sc2nnnn2-c2ccccc2)s1 | 22.5 | 38.8
25 | CSCCC1NC(=O)N(CC(=O)N2N=C(c3ccc(Cl)cc3)CC2c2ccco2)C1=O (stereo not given) | 10.9 | 13.6
26 | NC(=O)c1cccn1-c1ncc(C(F)(F)F)cc1Cl | 14.4 | 28.1
27 | Cc1ncc(C23CC4CC(CC(C4)C2)C3)[nH]1 | 76.1 | 96.7
28 | On1onc2c3cc(-c4ccccc4)nc3ccc21 | < 0.2 | < 0.2
29 | CC1CCc2c(sc3ncnc(NCCCOC(C)C)c23)C1 (stereo not given) | 59.3 | 74.2
30 | COc1cc(NC(=O)c2cccs2)c(C(=O)OCC(=O)NCc2ccco2)cc1OC | 34.9 | > 100
31 | CCOC(=O)C(C)Sc1ncnc2c1nnn2-c1ccc(F)cc1 (stereo not given) | 2.61 | 9.68
32 | CCn1cnc2sc(C(=O)Oc3ccc(Br)cc3)c(C)c2c1=O | 4.83 | 8.17
33 | O=C([O-])c1ccccc1-[n+]1c(-c2ccccc2)cc(-c2ccccc2)cc1-c1ccccc1 | 22 | 24.5
34 | CCOC(=O)CSCC(=O)N1CCC(Cc2ccccc2)CC1 | 9.38 | 16.2
35 | CN1C(=O)N(C)c2ccc(C=O)c3cccc1c23 | 45.5 | 51.4
36 | Cc1c(CCC(=O)NCCCn2ccnc2)c(=O)oc2c(C)c3occ(C(C)(C)C)c3cc12 | 28 | 37.6
37 | Cc1cccc(/C=c2\s/c(=C\C(=O)C(C)(C)C)[nH]c2=O)c1 | 12.4 | 31.7
38 | O=C(Cc1ccc([N+](=O)[O-])cc1)Nc1cc(C(F)(F)F)cc(C(F)(F)F)c1 | 2.48 | 3.41
39 | Cc1cc(C)c(CSc2ncc(-c3ccc([N+](=O)[O-])cc3)[nH]2)c(C)c1 | 36.9 | 53.4
40 | COc1cc(NC(C)CCCN)c2ncccc2c1 (stereo not given) | 9.02 | 14.3
41 | O=C(Nc1ccc(Cl)cc1)N1CCN(c2ccc3nnc(-c4ccc(F)cc4)n3n2)CC1 | 18.9 | 51.8
42 | COc1ccccc1N1CCN(CCCCOc2cccc3ccccc23)CC1 | 33 | 43.5
43 | CC(=O)c1c(N2CCCC2)[nH]c(-c2ccccc2)nc1=S | 81.4 | > 100
44 | COc1ccc(-c2nsc3c(N4CCCCC4C)ncnc23)cc1 (stereo not given) | 96.6 | > 100
45 | CCCCN1C(=O)C2(NNc3ccccc3O2)c2ccccc21 (stereo not given) | 92.1 | > 100
46 | NC(=O)CSc1nnc(COc2ccc3ccccc3c2)o1 | 20.8 | 27.3

Row | Compound | IC50 [µM] | IC90 [µM]
47 | COc1ccc(Nc2nc(N)c([N+](=O)[O-])c(NC3CCCCC3)n2)cc1 | 18.3 | 26.3
48 | CCOC(=O)COc1ccc(S(=O)(=O)NCCC2=CCCCC2)cc1 | 22.7 | 25.9
49 | O=C(CSc1cccc[n+]1[O-])c1cccs1 | 34.9 | 42.2
50 | Fc1cccc(CCN2CCNC[C@H]2Cc2cccc3ccccc23)c1 | 35.5 | 46.3
51 | CN1CCN(C2Cc3ccccc3Sc3cc(C(F)(F)F)ccc32)CC1 (stereo not given) | 14 | 17.4
52 | Cc1nonc1NC(=O)CSc1ccc(-c2ccccc2)nn1 | 41.2 | 58.9
53 | CCCCCC1CC(CC(=O)NC(=S)Nc2ccc([N+](=O)[O-])cc2)C(=O)O1 (stereo not given) |  | > 100
54 | O=C(c1ccc(Br)cc1)C(CN1CCOCC1)c1ccccc1 (stereo not given) | 12 | 13.8
55 | Cc1ccc(NC(=O)C2C3/C=C\CCCCC32)cc1C (stereo not given) | 2.97 | 4.49
56 | CN1C(C(=O)NCc2ccc(OC(F)(F)F)cc2)CC2Cn3c(nc4cc(Cl)c(Cl)cc43)C21 (stereo not given) | 44.2 | 70.4
57 | CCC(=O)Nc1nc2ccccc2n1Cc1ccc(Cl)cc1 | < 0.2 | 4.27
58 | C/C(=C1/C(=O)N(c2ccc([N+](=O)[O-])cc2)N=C1c1ccccc1)N(C)C | 28.2 | 37
59 | Cc1ccc(Cn2c(C(CO)Nc3nc(-c4ccc(F)cc4)cs3)nc3ccccc32)cc1 (stereo not given) | 66.4 | 91.8
60 | Nc1c(C(=O)OCC2CCCO2)c2nc3ccccc3nc2n1C1CCCC1 (stereo not given) | 60.7 | 86.8
61 | CCOC(=O)C(C)Sc1nc(-c2cccs2)ccc1C#N (stereo not given) | 44.2 | 50.3
62 | CC(C)(C)C(=O)/C(=C\c1cccc([N+](=O)[O-])c1)n1cncn1 | 3 | 3.41
63 | C1=C(c2c[nH]c3ccccc23)CCNC1 | 56.5 | 73.9
64 | S=C(NCc1ccc(Cl)cc1)NC12CC3CC(CC(C3)C1)C2 | 3.83 | 28.1
65 | COC(=O)c1ccc(CSc2nc(C(F)(F)F)c3c(c2C#N)CCC3)o1 |  | > 100
66 | CC(C)c1ccc(N2C(=O)NC(=O)/C(=C\C=C\c3ccco3)C2=O)cc1 | 44.5 | 49.7
67 | COc1ccc(C[C@H]2CN3C(=NC[C@H]3Cc3ccccc3)N2CCNC(=O)CCC2CCCCC2)cc1 | 22.4 | 24.3
68 | O=C(c1ccc([N+](=O)[O-])s1)N1CCN(c2ccc(C(F)(F)F)cn2)CC1 | 13.7 | 17.5
69 | CC(C)OC(=O)CCCCCN1C(=O)CSC1=S | 11.5 | 19.2

Row | Compound | IC50 [µM] | IC90 [µM]
70 | CC(C)NC(=S)N/N=C/c1c[nH]c2ccccc12 |  | > 100
71 | O=C(Oc1ccc(-c2cn3c(n2)SCC3)cc1)c1ccccc1 | 73.2 | > 100
72 | CC1CC2=C(CC1/C=N/NC(N)=S)C(C)(C)CCC2 (stereo not given) | 18.3 | 26.8
73 | CCCOc1ccc(-c2cnc(SCC(N)=O)nc2N)cc1 | 42.3 | > 100
74 | CCOC(=O)c1c(NC(=O)C(NCCN(C)C)c2ccccc2)sc2c1CCCC2 (stereo not given) | 9.32 | 12.1
75 | Cc1nc(SCC(=O)NCC2CCCO2)c2c3c(sc2n1)CCCC3 (stereo not given) | 23 | 25.2
76 | COc1ccc(COc2cc(-c3cccc(OC)c3)nc3ccc(NC(=O)c4ccc(OC)cc4)cc23)cc1 | 24 | > 100
77 | Fc1nc(F)c(F)c(NCCCNc2c(F)c(F)nc(F)c2F)c1F |  | > 100
78 | CCc1ccc(Nc2n[n+](C)c(-c3ccncc3)s2)cc1 | 42.1 | 47.6
79 | CCOC1OC(=O)C(Cl)=C1Nc1ccccc1C (stereo not given) | 3.39 | 7.24
80 | O=C(/C=C/c1ccccc1)N1CCN(CCN2C(=O)c3cccc4cccc(c34)C2=O)CC1 | 2.44 | 3.96
81 | CN(CCCC1CCCC1)C(=O)CCc1nnc(-c2ccccc2)o1 | 16.9 | 28
82 | CCc1ccc(-c2csc(-c3c[nH]c4ccccc34)n2)cc1 | 17.1 | 21.3
83 | CCN=c1scc(-c2ccco2)n1/N=C/c1ccc(OC)c(O)c1 | 23.2 | 35.1
84 | C[Se]C[C@@H](N)C(=O)O | 89.4 | 95.7
85 | COC(=O)C1CC(=O)N(c2ccc(OCc3ccccc3Cl)cc2)C1 (stereo not given) | 1.26 | 4.8
86 | O=[N+]([O-])c1cc(-c2ccc(/C=N\n3cnnc3)o2)cc([N+](=O)[O-])c1 | 45.5 | 49.9
87 | COc1ccccc1C(CNC(=O)C(C)(C)Oc1ccc(Cl)cc1)N1CCCC1 (stereo not given) | 27 | 42
88 | c1nc2n(n1)C1=C(CCCC1)C1(CCCCC1)N2 | 29.8 | 44.3
89 | CC(C)=CCOc1ccc([C@@H]2COc3c(ccc4c3C=CC(C)(C)O4)C2)c(O)c1 | 25.4 | 43
90 | COc1ccc(C2=NN(C(=O)COC(=O)c3ccc(S(C)(=O)=O)c([N+](=O)[O-])c3)C(c3ccco3)C2)cc1 (stereo not given) | 18.3 | 26.9

Source: PubChem BioAssay AID449764 (Southern Research Specialized Biocontainment Screening …, 2010)
